# Activity calls are given as the source filed them.
# Experiments:
# [1] = HEp-2 cell cytotoxicity, dose response, cytotoxicity control for RSV inhibitor project, HTS (AID 2410); type: functional; details: human respiratory syncytial virus
# cells [2] = experiment: cells
# Aminopeptidase N = target: T1, Aminopeptidase N (Plasmodium falciparum FcB1/Columbia, UniProt O96935); experiment: P. falciparum M1AAP inhibitors, biochemical, fluorogenic H-Leu-NHMec substrate, 1536-well (AID 1445); design: species or system Plasmodium falciparum 3D7, 3D7
# T1 sequence (O96935 whole entry): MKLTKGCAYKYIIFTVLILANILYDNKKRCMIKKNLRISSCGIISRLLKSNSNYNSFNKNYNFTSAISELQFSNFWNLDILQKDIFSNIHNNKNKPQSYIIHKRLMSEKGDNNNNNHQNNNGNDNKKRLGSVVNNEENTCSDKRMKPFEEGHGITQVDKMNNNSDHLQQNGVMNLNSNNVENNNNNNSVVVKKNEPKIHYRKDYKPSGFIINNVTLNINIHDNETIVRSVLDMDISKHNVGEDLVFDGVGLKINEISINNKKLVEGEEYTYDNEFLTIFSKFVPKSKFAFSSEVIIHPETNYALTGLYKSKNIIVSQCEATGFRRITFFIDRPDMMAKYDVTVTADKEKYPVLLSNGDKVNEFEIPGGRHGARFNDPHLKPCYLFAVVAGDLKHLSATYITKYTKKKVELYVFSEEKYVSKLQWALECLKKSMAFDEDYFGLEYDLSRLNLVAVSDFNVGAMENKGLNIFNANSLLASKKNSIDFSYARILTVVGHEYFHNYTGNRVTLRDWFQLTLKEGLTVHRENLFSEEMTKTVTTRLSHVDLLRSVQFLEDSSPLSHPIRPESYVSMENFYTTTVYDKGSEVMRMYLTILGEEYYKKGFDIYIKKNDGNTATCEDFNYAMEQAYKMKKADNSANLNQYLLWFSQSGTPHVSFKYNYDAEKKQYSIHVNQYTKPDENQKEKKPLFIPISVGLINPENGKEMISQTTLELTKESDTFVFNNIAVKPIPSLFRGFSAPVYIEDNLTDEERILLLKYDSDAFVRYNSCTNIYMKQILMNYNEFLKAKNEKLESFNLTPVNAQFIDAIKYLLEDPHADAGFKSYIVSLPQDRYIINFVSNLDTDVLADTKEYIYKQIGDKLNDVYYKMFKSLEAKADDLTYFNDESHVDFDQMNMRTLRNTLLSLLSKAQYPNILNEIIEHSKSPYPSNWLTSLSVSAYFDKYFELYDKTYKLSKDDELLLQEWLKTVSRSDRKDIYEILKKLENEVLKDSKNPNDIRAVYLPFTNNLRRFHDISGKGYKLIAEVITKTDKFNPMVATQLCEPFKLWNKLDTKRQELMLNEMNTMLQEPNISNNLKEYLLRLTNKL
# [3] = inhibitors of PGC1a acetylation in cells, dose response, cell-based, cherry-picked samples (AID 720514); type: functional;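 note: potency may reflect raised or lowered acetylation signal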
# [4] = control 3'UTR Renilla luciferase suppression, dose response, counter-screen for Shn3 inhibitor project, cell-based, Clone20-Shn3RL, cherry-picked (AID 624133); type: functional
# Protein RecA = target: T2, Protein RecA (Mycobacterium tuberculosis, UniProt P9WHJ3); experiment: Fluorescence Cell-Free Homogeneous Dose Retest to Identify Inhibitors of RecA-Intein Splicing Activity. [Related pubchem assays (depositor defined):AID2097, AID2223, AID489010, AID492950]; type: functional
# T2 sequence (P9WHJ3 whole entry): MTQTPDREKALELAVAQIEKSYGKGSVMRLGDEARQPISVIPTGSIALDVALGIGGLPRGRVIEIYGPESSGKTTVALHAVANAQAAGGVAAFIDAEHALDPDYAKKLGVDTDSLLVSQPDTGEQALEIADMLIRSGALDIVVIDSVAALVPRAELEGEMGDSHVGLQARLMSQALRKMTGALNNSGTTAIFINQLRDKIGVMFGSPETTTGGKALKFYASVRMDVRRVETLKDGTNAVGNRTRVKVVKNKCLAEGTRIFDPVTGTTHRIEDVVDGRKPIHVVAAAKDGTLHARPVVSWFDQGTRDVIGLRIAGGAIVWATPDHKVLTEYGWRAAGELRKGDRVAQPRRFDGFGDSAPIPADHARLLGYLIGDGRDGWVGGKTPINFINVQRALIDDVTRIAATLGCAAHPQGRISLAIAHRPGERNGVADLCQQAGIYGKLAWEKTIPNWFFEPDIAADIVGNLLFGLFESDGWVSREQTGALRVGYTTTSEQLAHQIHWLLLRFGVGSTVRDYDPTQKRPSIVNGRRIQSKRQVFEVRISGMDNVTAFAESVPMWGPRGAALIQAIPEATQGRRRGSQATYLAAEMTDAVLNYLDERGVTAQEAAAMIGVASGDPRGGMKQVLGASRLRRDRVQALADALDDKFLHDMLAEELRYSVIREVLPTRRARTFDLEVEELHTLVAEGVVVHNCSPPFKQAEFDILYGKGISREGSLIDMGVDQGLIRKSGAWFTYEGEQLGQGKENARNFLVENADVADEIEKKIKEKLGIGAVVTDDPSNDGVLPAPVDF
# [5] = HepG2 cell cytotoxicity, dose response, cytotoxicity control for Shn3 inhibitor project, CellTiter-Glo, cherry-picked (AID 624134); type: functional, cell-based
# [6] = target: T3, Replicative DNA helicase DnaB (Mycobacterium tuberculosis, UniProt P9WMR3); experiment: DnaB intein splicing inhibitors, dose response, biochemical, cell-free fluorescence (AID 449749); type: functional
# T3 sequence (P9WMR3 whole entry): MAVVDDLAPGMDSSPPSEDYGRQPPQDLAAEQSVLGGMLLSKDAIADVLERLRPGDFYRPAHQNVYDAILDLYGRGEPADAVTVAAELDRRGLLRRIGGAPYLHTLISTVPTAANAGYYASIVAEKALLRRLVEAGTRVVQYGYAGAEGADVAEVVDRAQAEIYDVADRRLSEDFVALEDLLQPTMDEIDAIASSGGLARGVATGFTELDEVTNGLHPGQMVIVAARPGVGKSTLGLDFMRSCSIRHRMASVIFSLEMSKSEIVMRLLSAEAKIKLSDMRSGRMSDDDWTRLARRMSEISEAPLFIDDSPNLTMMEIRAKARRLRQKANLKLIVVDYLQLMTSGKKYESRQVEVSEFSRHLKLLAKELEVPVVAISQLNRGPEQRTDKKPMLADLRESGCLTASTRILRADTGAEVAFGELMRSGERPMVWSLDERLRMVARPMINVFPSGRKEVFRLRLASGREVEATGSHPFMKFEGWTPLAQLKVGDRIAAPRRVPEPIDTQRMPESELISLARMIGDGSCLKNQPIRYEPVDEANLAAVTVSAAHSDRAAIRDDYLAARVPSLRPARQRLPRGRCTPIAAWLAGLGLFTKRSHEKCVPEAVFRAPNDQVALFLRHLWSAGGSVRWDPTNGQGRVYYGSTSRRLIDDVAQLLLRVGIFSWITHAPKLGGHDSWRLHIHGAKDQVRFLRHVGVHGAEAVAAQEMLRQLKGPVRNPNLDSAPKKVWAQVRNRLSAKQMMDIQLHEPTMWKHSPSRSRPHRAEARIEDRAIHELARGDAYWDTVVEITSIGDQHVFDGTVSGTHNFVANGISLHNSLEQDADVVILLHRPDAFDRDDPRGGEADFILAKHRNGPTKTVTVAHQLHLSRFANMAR
# cells [7] = type: functional
# cells [8] = type: functional, cell-based
# cells [9] = type: functional, cell-based; remark: listed apart in the source
# [10] = Luminescence Cell-Based Dose Response HTS to Identify Activators of Luciferase Translation or Activity in H4 […] Cells. [Related pubchem assays: 1829 (Project Summary), 1814 (Primary HTS)]; type: functional
# [11] = Luminescence Cell-Based Dose Confirmation HTS to Identify Activators of 5'UTR Stem-Loop Driven Alpha-Synuclein mRNA Translation in H4 Neuroglioblastoma Cells. [Related pubchem assays: 1829 (Project Summary), 1814 (Primary HTS)]; type: functional
# H4 = experiment: Luminescence Cell-Based Dose Response HTS to Identify Activators of 5'UTR Stem-Loop Driven Prion Protein mRNA Translation in H4 Neuroglioblastoma Cells. [Related pubchem assays: 1829 (Project Summary), 1814 (Primary HTS)]; type: functional; details: Homo sapiens
# [12] = THP-1 cell cytotoxicity, dose response, cytotoxicity control for non-replicating M. tuberculosis project (AID 489025); type: functional
# [13] = target: T4, Heat shock factor protein 1 (Mus musculus, UniProt P38532); experiment: HSF1 potentiators in luciferase reporter cells, confirmation, cell-based, NIH3T3, luminescence, dose retest (AID 435004); type: functional;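 note: stress induced by proteasome inhibitor MG132 added 30 min after compound; luciferase reporter driven by HSF1 response element in NIH3T3 cells; actives raise luminescence as potentiators of the MG132 stress response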
# T4 sequence (P38532 whole entry): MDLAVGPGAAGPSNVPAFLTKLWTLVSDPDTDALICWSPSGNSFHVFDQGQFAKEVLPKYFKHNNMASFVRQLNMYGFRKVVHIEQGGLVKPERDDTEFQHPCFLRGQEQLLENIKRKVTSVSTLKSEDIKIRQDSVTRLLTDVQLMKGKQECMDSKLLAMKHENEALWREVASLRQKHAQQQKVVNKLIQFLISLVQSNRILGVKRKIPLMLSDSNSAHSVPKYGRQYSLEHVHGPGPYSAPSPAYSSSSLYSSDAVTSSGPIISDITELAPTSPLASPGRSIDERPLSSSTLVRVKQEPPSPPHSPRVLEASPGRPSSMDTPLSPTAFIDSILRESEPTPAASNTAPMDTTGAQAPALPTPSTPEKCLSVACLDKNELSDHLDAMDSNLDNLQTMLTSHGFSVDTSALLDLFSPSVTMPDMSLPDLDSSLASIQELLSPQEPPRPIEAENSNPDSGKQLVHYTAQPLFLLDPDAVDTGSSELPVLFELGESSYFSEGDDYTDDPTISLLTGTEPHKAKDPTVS
# [14] = target: Heat shock protein HSP 90-alpha (Homo sapiens, UniProt P07900); type: functional, organism-based
# [15] = Shn3 3'UTR reporter inhibitors, dose response, cell-based, Clone20 osteoblasts, firefly luciferase, cherry-picked (AID 624132); type: functional;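 note: firefly luciferase luminescence from reporter carrying the Shn3 3'UTR in osteoblasts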
# Paired box protein Pax-8 = Paired box protein Pax-8 (Homo sapiens, UniProt Q06710); experiment: inhibitors of PAX8-driven TPO luciferase reporter, dose response, RMG-I cells, cherry-pick (AID 687027); type: functional, cell-based;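 note: luciferase reporter driven by Pax8 target thyroperoxidase promoter measured by SteadyGlo luminescence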
# [16] = intracellular Trypanosoma cruzi inhibitors in host cells – cell-based, plate reader, cherry-pick samples, set 3, dose response (AID 651818); type: functional;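 note: compounds incubated with infected cells for about four days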
# [17] = inhibitors of HIV Env-driven cell fusion, dose response, cherry-pick (AID 652057); type: functional, cell-based
# [18] = inhibitors of clade B AD8 Env fusion, dose response, cell-based, cherry-pick (AID 652062); type: functional;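 note: luciferase signal from cell-cell fusion driven by HIV-1 clade B AD8 Env; potency is for inhibitors of fusion seen as a drop in luminescence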
# Paired box protein Pax-8, sequence (Q06710 whole entry): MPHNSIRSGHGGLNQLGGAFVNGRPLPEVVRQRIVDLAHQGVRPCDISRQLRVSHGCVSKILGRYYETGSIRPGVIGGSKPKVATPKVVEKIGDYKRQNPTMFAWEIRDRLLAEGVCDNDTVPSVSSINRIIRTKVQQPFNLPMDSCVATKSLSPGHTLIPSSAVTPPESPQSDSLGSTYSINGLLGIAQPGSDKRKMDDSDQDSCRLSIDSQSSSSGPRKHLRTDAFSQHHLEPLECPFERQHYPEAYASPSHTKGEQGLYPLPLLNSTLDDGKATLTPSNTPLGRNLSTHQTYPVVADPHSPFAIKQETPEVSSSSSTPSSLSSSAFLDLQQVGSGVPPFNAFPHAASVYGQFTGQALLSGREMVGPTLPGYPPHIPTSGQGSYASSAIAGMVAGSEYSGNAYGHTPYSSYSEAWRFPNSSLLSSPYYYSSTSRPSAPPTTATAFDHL
compound,measurement,setting,value
CC(C)[C@H](NC(=O)N1CCn2c1nc1ccccc12)C(=O)NCc1ccccc1Cl,CC50,[1],46.3 µM (active)
same,IC50,cells [2],35.8 µM (active)
COc1ccc(C(=O)NNC(=O)CSc2nnc(-c3ccc(O)cc3)n2C)cc1,IC50,Aminopeptidase N,56.8 µM (active)
Cc1cc(OCC(=O)NNC(=O)c2cnccn2)cc(C)c1Cl,AC50,[3],29.6 µM (active)
Cc1ccc(-n2c(=O)c3sccc3n(Cc3cc(=O)n4ccccc4n3)c2=O)cc1F,IC50,cells [2],9.86 µM (active)
CC(=O)N1C(=O)/C(=C2\SC(=S)N(NS(=O)(=O)c3ccc(C)cc3)C2=O)c2ccccc21,IC50,Aminopeptidase N,3.22 µM (active)
CC1=NN(c2cccc([N+](=O)[O-])c2)C(=O)C1,AC50,[4],29.5 µM (active)
same,EC50,Protein RecA,19.5 µM (active)
same,AC50,[5],> 70 µM (inactive)
same,AC50,[6],14.4 µM (active)
CCc1ccc(OCC(=O)Nc2ccncc2)c(Br)c1,IC50,cells [7],38.1 µM (active)
same,EC50,cells [8],> 350 µM (not active)
same,EC50,cells [9],> 350 µM (not active)
same,EC50,[10],17.4 µM (active)
same,EC50,[11],13.9 µM (active)
same,EC50,H4,> 120 µM (not active)
same,CC50,[12],> 40 µM (active)
COc1cc(/C=C2\SC(=S)N(Nc3ncc(C(F)(F)F)cc3Cl)C2=O)ccc1O,EC50,[13],36 µM (active)
same,AC50,[14],12.4 µM (active)
O=c1c2cc(Cl)ccc2oc2nc3n(c(=O)c12)CCCS3,IC50,cells [7],2.92 µM (active)
same,CC50,[12],> 40 µM (active)
COc1ccc([C@H]2CC(=O)C=C(c3ccc(F)cc3OCc3ccccc3)C2)cc1OC,AC50,[4],16.1 µM (active)
same,AC50,[5],> 70 µM (inactive)
same,AC50,[15],7.36 µM (active)
CC(=O)c1cccc(-c2csc3ncnc(Sc4nnnn4C)c23)c1,AC50,[4],15.5 µM (active)
same,AC50,[5],53.4 µM (active)
same,AC50,Paired box protein Pax-8,3.1 µM (active)
same,AC50,[15],4.72 µM (active)
Cc1cc(C)c(NC(=O)c2ccc(S(=O)(=O)N(C)C)cc2)c(C)n1,AC50,[3],29.4 µM (active)
COc1ccc(S(=O)(=O)NC2=NC(=O)/C(=C\c3ccco3)S2)cc1,IC50,Aminopeptidase N,99.1 µM (active)
COCCOc1ccc(C(F)(F)F)cc1NC(=O)CN1C(=O)NC2(CCCc3ccccc32)C1=O (centres undefined),AC50,[3],33.9 µM (active)
C[C@@H]1CCCCO[C@@H](CN(C)Cc2ccc(C(F)(F)F)cc2)[C@@H](C)CN([C@H](C)CO)C(=O)c2cc(NC(=O)NC3CCCCC3)ccc2O1,AC50,[16],6.76 µM (active)
C[C@H](CO)N1C[C@H](C)[C@@H](CN(C)Cc2ccc(-c3ccccc3)cc2)Oc2ccc(NS(=O)(=O)c3ccccc3)cc2C1=O,AC50,[16],4.49 µM (active)
C[C@H]1CN([C@@H](C)CO)C(=O)c2cccc(NC(=O)c3nc4ccccc4s3)c2O[C@@H]1CN(C)Cc1ccc(-c2ccccc2)cc1,AC50,[16],1.22 µM (active)
COc1ccc(NC(=O)N(C)C[C@H]2Oc3c(NS(=O)(=O)c4ccc(F)cc4)cccc3C(=O)N([C@@H](C)CO)C[C@H]2C)cc1,AC50,[16],4.14 µM (active)
C[C@@H]1CCCCO[C@H](CN(C)Cc2ccc(C(F)(F)F)cc2)[C@@H](C)CN([C@H](C)CO)C(=O)c2cc(NC(=O)Nc3cccc4ccccc34)ccc2O1,AC50,[16],2.91 µM (active)
C[C@H](C(=O)N(C)C[C@@H]1OCc2ccccc2-c2ccccc2C(=O)N([C@H](C)CO)C[C@@H]1C)c1ccccc1,AC50,[17],< 0.26 µM (active)
same,AC50,[18],< 0.26 µM (active)
C[C@@H]1CN([C@@H](C)CO)S(=O)(=O)c2ccc(-c3ccc(F)cc3)cc2O[C@H]1CN(C)C(=O)C1CCCCC1,AC50,[3],17.1 µM (active)
